Measured values: patent publication US6706722B2, “Heteroaryl derivatives and their use as medicaments” (Zentaris AG, priority 2000, dated 2004)

Legend:
[1] = tested on: human cervical carcinoma cell lines KB/HeLa (ATCC/CCL17); experiment: XTT proliferation test (cellular dehydrogenase activity), KB/HeLa; type: cell-based; settings: in-vitro cytotoxicity, values determined from 5 substance concentrations, 45 h incubation
Method: (§1) In a proliferation test, the antiproliferative activity of the substance D-43411 was examined using established tumor cell lines. The Cellular Dehydrogenation activity is determined in the test, which enables determination of the vitality of the cell and, indirectly, the cell count. The cell lines used are the human cervical carcinoma cell lines KB/HeLa (ATCC/CCL17), the murine lymphocyte leukemia L1210 (ATCC CCL-219), the human breast adenocarcinoma line MCF7/ATCC HTB22) and the ovary adenocarcinoma line SKOV-3 (ATCC HTB77). These are established cell lines which are very well characterized and were obtained from ATCC and cultured. XTT Test for Cellular Dehydrogenase Activity The adherently growing tumor cell lines HeLa/KB, SKOV-3 and MCF7 and the L1210 leukemia line, which grows in suspension, were cultivated under standard conditions in an incubator with gas inlet at 37° C., 5% CO2 and 95% atmospheric humidity. On Test Day 1, the adherent cells are detached using trypsine/EDTA and pelleted by centrifugation. […] The cell plates are then incubated in the incubator with gas inlet for a further 3 hours, and the optical density (OD490nm) is determined in a photometer. Using the OD490nm obtained, the inhibition is calculated in percent relative to the control. […]

[2] = tested on: murine lymphocyte leukemia L1210 (ATCC CCL-219); experiment: XTT proliferation test (cellular dehydrogenase activity), L1210; type: cell-based; settings: Mus musculus, in-vitro cytotoxicity, values determined from 5 substance concentrations, 45 h incubation
Method: as §1

[3] = tested on: human breast adenocarcinoma line MCF7 (ATCC HTB22); experiment: XTT proliferation test (cellular dehydrogenase activity), MCF7; type: cell-based; settings: test period of 48 h
Method: as §1

[4] = tested on: ovary adenocarcinoma line SKOV-3 (ATCC HTB77); experiment: XTT proliferation test (cellular dehydrogenase activity), SKOV-3; type: cell-based; settings: Homo sapiens, SK-OV-3, in-vitro cytotoxicity, values determined from 5 substance concentrations, 45 h incubation
Method: as §1

With `COc1cc(OC)cc(N2CCN(C(=O)c3c4ccccc4nc4ccccc34)CC2)c1` [D-43411, 1-(3,5-Dimethoxyphenyl)-4-(9-acridinyl-carbonyl)piperazine] the IC50 [1] was less than 0.3 ng/mL, the IC50 [2] was less than 0.3 ng/mL and the inhibition at 3160 µg/mL ([3]; at 3.16 mg/ml) was 18%. It also gave an IC50 ([3]; in-vitro cytotoxicity, values determined from 5 substance concentrations) greater than 3160 ng/mL, an IC50 [4] of less than 0.3 ng/mL and a melting point of 172 to 175 °C.
